Source: patent US9505769B2 (ASCENEURON SA, priority 2013, dated 2016)
Where a name gives a salt, the structure may show the parent alone. Read-outs that look alike come from different tables or passages of the source.

Target: T1, human muscarinic acetylcholine M1 receptor (Homo sapiens, UniProt P11229)
T1 construct: expressed in transfected cells; host or cells: CHO-K1
T1 sequence (P11229 1-460): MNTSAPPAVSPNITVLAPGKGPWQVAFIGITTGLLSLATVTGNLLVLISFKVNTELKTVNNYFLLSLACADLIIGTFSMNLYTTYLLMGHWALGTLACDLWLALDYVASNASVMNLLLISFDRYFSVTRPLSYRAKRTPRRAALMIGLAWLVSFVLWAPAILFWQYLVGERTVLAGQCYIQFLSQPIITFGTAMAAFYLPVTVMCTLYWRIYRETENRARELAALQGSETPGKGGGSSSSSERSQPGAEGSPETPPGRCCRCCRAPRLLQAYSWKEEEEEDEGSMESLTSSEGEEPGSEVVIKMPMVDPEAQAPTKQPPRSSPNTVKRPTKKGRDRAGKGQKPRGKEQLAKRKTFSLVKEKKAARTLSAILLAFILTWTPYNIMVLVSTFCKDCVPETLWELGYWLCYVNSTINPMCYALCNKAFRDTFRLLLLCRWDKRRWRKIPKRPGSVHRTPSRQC
Assay: M1 PAM Assay (IP-One HTRF, IP1 accumulation in M1-CHO cells)
Type: cell-based
Description: Then diluted compounds (0.6% DMSO final concentration) are added together with EC20 of acetylcholine and incubated with the cells for 30 min at 37° C., 5% CO2.
CHO-K1 cells stably transfected with human muscarinic acetylcholine M1 receptor are cultured in Ham's F12 medium containing 10% heat inactivated fetal calf serum, 2 mM L-glutamine and Penicillin-Streptomycin grown in a humidified atmosphere at 5% CO2/95% air at 37° C.

[1] = CHO-K1 cells stably transfected with human M1 receptor, compounds added with EC20 of acetylcholine (25 nM), 30 min, intracellular IP1 by IP-One HTRF, read-out: M1 PAM EC50

SMILES	EC50 [1] [nM]	EC50 [nM]
Cc1nc2c3c(nn2c(C)c1Cl)CN(C(=O)c1ccccc1C(C)N1CCN(C)CC1)C3 (stereo not shown) [Example 7, (3-chloro-2,4-dimethyl-7H-pyrrolo[3′,4′:3,4]pyrazolo[1,5-a]pyrimidin-8(9H)-yl)(2-(1-(4-methylpiperazin-1-yl)ethyl)phenyl)methanone]	1000 to 3000	–
CCc1nc2c3c(nn2c(C)c1Cl)CN(C(=O)c1ccccc1O[C@@H]1CCC[C@H]1O)C3 [Example 9, (anti)-(6-Chloro-5-ethyl-7-methyl-1H,3H-2,4,7a,8-tetraaza-cyclopenta[a]inden-2-yl)-[2-(2-hydroxy-cyclopentyloxy)-phenyl]-methanone or (anti)-(6-Chloro-5-methyl-7-ethyl-1H,3H-2,4,7a,8-tetraaza-cyclopenta[a]inden-2-yl)-[2-(2-hydroxy-cyclopentyloxy)-phenyl]-methanone]	1000 to 3000	–
Cc1nc2c3c(nn2c(C)c1Cl)CN(C(=O)c1ccc(F)cc1O[C@@H]1CCNC1=O)C3 [Example 11, (R)-3-(2-(3-chloro-2,4-dimethyl-8,9-dihydro-7H-pyrrolo[3′,4′:3,4]pyrazolo[1,5-a]pyrimidine-8-carbonyl)-5-fluorophenoxy)pyrrolidin-2-one]	200 to 1000	–
CN1CCC(Oc2cc(F)ccc2C(=O)N2Cc3nn4cc(Cl)cnc4c3C2)CC1 [Example 12, (3-chloro-7H-pyrrolo[3′,4′:3,4]pyrazolo[1,5-a]pyrimidin-8(9H)-yl)(4-fluoro-2-((1-methylpiperidin-4-yl)oxy)phenyl)methanone]	200 to 1000	–
Cc1nc2c3c(nn2c(C)c1Cl)CN(C(=O)c1ccc(C#N)cc1OCCN(C)C)C3 [Example 14, 4-(3-chloro-2,4-dimethyl-8,9-dihydro-7H -pyrrolo[3′,4′:3,4]pyrazolo[1,5-a]pyrimidine-8-carbonyl)-3-(2-(dimethylamino)ethoxy)benzonitrile]	200 to 1000	–
Cc1nc2c3c(nn2c(C)c1Cl)CN(C(=O)c1ccc(F)cc1OCCN1CCOCC1)C3 [Example 15, (3-Chloro-2,4-dimethyl-7H-pyrrolo[3′,4′:3,4]pyrazolo[1,5-a]pyrimidin-8(9H)-yl)(4-fluoro-2-(2-morpholinoethoxy)phenyl)methanone]	1000 to 3000	–
Cc1nc2c3c(nn2c(C)c1Cl)CN(C(=O)c1ccc(F)cc1OCCN1CCCC1)C3 [Example 16, (3-Chloro-2,4-dimethyl-7H-pyrrolo[3′,4′:3,4]pyrazolo[1,5-a]pyrimidin-8(9H)-yl)(4-fluoro-2-(2-pyrrolidinoethoxy)phenyl)methanone]	< 200	–
Cc1nc2c3c(nn2c(C)c1Cl)CN(C(=O)c1ccc(F)cc1OCc1cccnc1)C3 [Example 19, (6-Chloro-5,7-dimethyl-1H,3H-2,4,7a,8-tetraaza-cyclopenta[a]inden-2-yl)-[4-fluoro-2-(pyridin-3-ylmethoxy)-phenyl]-methanone]	1000 to 3000	–
Cc1nc2c3c(nn2c(C)c1Cl)CN(C(=O)c1ccc(F)cc1OCCn1cncn1)C3 [Example 20]	200 to 1000	–
Cc1nc2c3c(nn2c(C)c1Cl)C(CO)N(C(=O)c1ccccc1OC1CCN(C)CC1)C3 (stereo not shown) [Example 23, (6-Chloro-1-hydroxymethyl-5,7-dimethyl-1H,3H-2,4,7a,8-tetraaza-cyclopenta[a]inden-2yl)-[2-(1-methyl-piperidin-4-yloxy)-phenyl]-methanone]	1000 to 3000	–
CCOC(=O)N1CCC(Oc2cc(F)ccc2C(=O)N2Cc3nn4c(C)c(Cl)c(C)nc4c3C2)CC1 [Example 28, 4-[2-(6-Chloro-5,7-dimethyl-1H,3H-2,4,7a,8-tetraaza-cyclopenta[a]indene-2-carbonynl)-5-fluoro-phenoxy]-piperidine-1-carboxylic acid ethyl ester]	1000 to 3000	–
Cc1nc2c3c(nn2c(C)c1Cl)CN(C(=O)c1ccc(F)cc1OC1CCN(C(CO)CO)CC1)C3 [Example 29, (6-Chloro-5,7-dimethyl-1H,3H-2,4,7a8-tetraaza-cyclopenta[a]inden-2-y)-{4-fluoro-2-[1-(2-hydroxy-1-hydroxymethyl-ethyl)-piperidin-4-yloxy]-phenyl}-methanone]	< 200	–
Cc1nc2c3c(nn2c(C)c1Cl)CN(C(=O)c1ccc(F)cc1OC1CN(CCO)C1)C3 [Example 30, (3-chloro-2,4-dimethyl-7H-pyrrolo[3′,4′:3,4]pyrazolo[1,5-a]pyrimidin-8(9H)-yl)(4-fluoro-2-((1-(2-hydroxyethyl)azetidin-3-yl)oxy)phenyl)methanone]	200 to 1000	–
Cc1nc2c3c(nn2c(C)c1Cl)CN(C(=O)c1ccc(Br)cc1OCCN(C)C)C3 [Example 31, (4-bromo-2-(2-(dimethylamino)ethoxy)phenyl)(3-chloro-2,4-dimethyl-7H-pyrrolo[3′,4′:3,4]pyrazolo[1,5-a]pyrimidin-8(9H)-yl)methanone]	200 to 1000	–
Cc1nc2c3c(nn2c(C)c1Cl)CN(C(=O)c1ccc(F)cc1OC1CCN(CCO)CC1)C3 [Example 32, (6-Chloro-5,7-dimethyl-1H,3H-2,4,7a,8-tetraaza-cyclopenta[a]inden-2-yl)-{4-fluoro-2-[1-(2-hydroxy-ethyl)-piperidin-4-yloxy]-phenyl}-methanone]	< 200	–
O=C(c1ccc(F)cc1OC1CCNCC1)N1Cc2nn3cc(Cl)cnc3c2C1 [Example 33, (3-chloro-7H-pyrrolo[3′,4′:3,4]pyrazolo[1,5-a]pyrimidin-8(9H)-yl)(4-fluoro-2-(piperidin-4-yloxy)phenyl)methanone hydrochloride]	200 to 1000	–
O=C(c1ccc(F)cc1OC1CCN(CCF)CC1)N1Cc2nn3cc(Cl)cnc3c2C1 [Example 34]	200 to 1000	–
O=C(c1ccc(F)cc1OC1CCN(CCO)CC1)N1Cc2nn3cc(Cl)cnc3c2C1 [Example 35, (3-chloro-7H-pyrrolo[3′,4′:3,4]pyrazolo[1,5-a]pyrimidin-8(9H)-yl)(4-fluoro-2-((1-(2-hydroxyethyl)piperidin-4-yl)oxy)phenyl)methanone]	200 to 1000	–
Cc1nc2c3c(nn2c(C)c1Cl)CN(C(=O)c1ccc(F)cc1O[C@H]1C[C@H]2CC[C@@H](C1)N2CCF)C3 [Example 36, (3-chloro-2,4-dimethyl-7H-pyrrolo[3′,4′:3,4]pyrazolo[1,5-a]pyrimidin-8(9H)-yl)(4-fluoro-2-{[(3-endo)-8-(2-fluoroethyl)-8-azabicyclo[3.2.1]oct-3-yl]oxy}phenyl)methanone]	–	< 200
Cc1nc2c3c(nn2c(C)c1Cl)CN(C(=O)c1ccc(F)cc1O[C@H]1C[C@H]2CC[C@@H](C1)N2CCO)C3 [Example 37, (3-chloro-2,4-dimethyl-7H-pyrrolo[3′,4′:3,4]pyrazolo[1,5-a]pyrimidin-8(9H)-yl)(4-fluoro-2-{[(3-endo)-8-(2-hydroxyethyl)-8-azabicyclo[3.2.1]oct-3-yl]oxy}phenyl)methanone]	–	< 200
Cc1nc2c3c(nn2c(C)c1Cl)CN(C(=O)c1ccc(F)cc1OCCn1ccnc1C)C3 [Example 40, (3-chloro-2,4-dimethyl-7H-pyrrolo[3′,4′:3,4]pyrazolo[1,5-a]pyrimidin-8(9H)-yl)(4-fluoro-2-(2-(2-methyl-1H-imidazol-1-yl)ethoxy)phenyl)methanone]	1000 to 3000	–
Cc1ccc(CCOc2cc(F)ccc2C(=O)N2Cc3nn4c(C)c(Cl)c(C)nc4c3C2)cn1 [Example 42, (3-chloro-2,4-dimethyl-7H-pyrrolo[3′,4′:3,4]pyrazolo[1,5-a]pyrimidin-8(9H)-yl)(4-fluoro-2-(2-(6-methylpyridin-3-yl)ethoxy)phenyl)methanone]	200 to 1000	–
